Test results from patent US11999782B2, “Therapeutic agents for the treatment of diseases associated with undesired cell proliferation” (Fundació Privada Institutció Catalana de Recerca I Estudis …, priority 2009, dated 2024).

Experiments:
[1] = tested on: LIF expression in GBM neurospheres; assay: LIF mRNA by qRT-PCR in GBM neurospheres; type: cell-based, human; settings: 3 hours; for LIF transcript in neurospheres derived from patients: 100 pM, medium without serum
Method: (§1) FIG. 3. TGFβ induces the expression of LIF in PCTC and GBM neurospheres. (A) PCTC cells of the 11 samples of the indicated GEM (GBM1-11) were treated with 100 pM TGFβ1 for 3 hours in medium without serum or left untreated, and the expression levels of LIF were determined by means of qRT-PCR. The g-actin was determined as an internal normalization control. (B) GBM neurosphere cells were treated as in A and the expression levels of LIF were determined by means of qRT-PCR as in A. (C) GBM neurospheres were incubated with 100 pM TGFβ1 and/or 2 μM TβRI inhibitor for 3 hours in medium without serum and the mRNA levels of LIF were determined by means of qRT-PCR as in A. (D) GBM1 neurospheres were incubated with 100 pM TGFβ1, TGFβ2 and TGFβ3 for 3 hours in medium without serum and the mRNA levels of LIF were determined by means of qRT-PCR as in A. (E) The levels of LIF protein secreted were determined by means of ELISA in GBM1 neurospheres after 48 hours of treatment with 100 pM TGFβ1.
The U373MG and A172 cells were a generous gift from J. Rich and D. Bigner and were cultured in DMEM with 10% fetal bovine serum (FBS). The primary culture of tumor cells (PCTC) and the GBM neurospheres were generated as described (Bruna et al., (2007) Cancer Cell 11, 147-160; Gunther et al., (2008) Oncogene. May 1; 27(20):2897-909). Briefly, the samples of tumors were processed in the 30 minutes after the surgical resection. The ground pieces of the samples of human gliomas were digested with 200 U/ml collagenase I (Sigma) and 500 U/ml of DNase I (Sigma) in PBS for 2 hours at 37° C. and with constant vigorous stirring. The suspension of individual cells was filtered through a 70 μm cell filter (BD Falcon) and washed with PBS. Finally, the cells were resuspended and subsequently cultured in DMEM with 10% FBS, for the culture of PCTCs, or in neurosphere medium in the case of the GBM neurospheres. The neurospheres of normal human neuroprogenitors were generated from human embryonic cerebral cortex tissue (12-16 weeks after the conception) collected after voluntary abortions. The samples were processed and cultured as described (Poltavtseva et al. (2002) Brain Res Dev Brain Res 134, 149-154). The neurosphere medium consists of neurobasal medium (Gibco) supplemented with B27 (Gibco), L-glutamine (Gibco), penicillin/streptomycin, and growth factors (20 ng/mL EGF and 20 ng/mL FGF-2 (Peprotech)).
(§2) qRT-PCR was performed using Taqman probes from Applied Biosystems, according to the manufacturer's recommendations. The reactions were carried out in a ABI 7000 sequence detector (Perkin Elmer) and the results were expressed as the fold change calculated by means of the DDCt method relative to the control sample or the first quantified sample. The ribosomal unit of 18S or β-actin were used as internal normalization controls.
It was decided to investigate the molecular mechanisms responsible for the effect of TGFβ on GICs. Gene responses to TGFβ in GBM cells which could be involved in the regulation of the self-renewal of GICs were investigated. In a previous work (Bruna et al., 2007), transcriptome analyses were conducted in the U373MG glioma cell line treated with TGFβ and/or a TβRI inhibitor. LIF was among the 63 gene responses to TGFβ in U373MG which were dependent on the activity of TβRI. […] A panel of PCTCs derived from 11 different human GBMs was treated with TGFβ for 3 hours and the levels of LIF mRNA were determined.

[2] = tested on: LIF expression in PCTC cells; assay: LIF mRNA by qRT-PCR in PCTCs of human GBM; type: cell-based; settings: PCTCs from 11 human GBMs, 100 pM TGFβ1, 3 hours, medium without serum
Method: as §1, with “TGFβ1. […]” for “TGFβ1.”
as §2, with “The ribosomal unit of 18S or β-actin were used as internal normalization controls.” left out

Compound | effect on the induction of LIF by TGFβ ([1]; GBM neurospheres, 100 pM TGFβ1 with 2 μM TβRI inhibitor) | levels of LIF mRNA in PCTCs [2] | LIF transcript in neurospheres derived from patients [1] | LIF transcript in neurospheres derived from patients ([1]; listed as TGFβ1)
NC(=O)c1ccc(-c2nc(-c3ccc4c(c3)OCO4)c(-c3ccccn3)[nH]2)cc1 [TβRI inhibitor, SB431542, reference compound] | blocked | – | – | –
TGFβ: TGFβ1 (R&D Systems), used at 100 pM according to the figure legends | – | induced LIF in all the PCTCs assayed | capable of inducing the LIF transcript | capable of inducing LIF
